The source made the active and inactive calls. No cut-off for these calls is given here.
Experiments:
Quadruplex DNA [1] = assay: Binding affinity to G-quadruplex G1 DNA (unknown origin) assessed as melting temperature at compound to DNA ratio of 4:1 in presence of 100 mM K+ by circular dichroism thermal denaturation analysis (Rvb= 52.6 degC); assay type: nucleic-acid assay
HeLa [2] = assay: Inhibition of DNA polymerase activity in human HeLa cell lysate at 6.25 uM in presence of [32P]-labeled template primer by TRAP assay; assay type: subcellular
[3] = biological target: Telomerase reverse transcriptase (Homo sapiens) (UniProt O14746); assay: Inhibition of telomerase activity in human HeLa cell lysate at 6.25 uM in presence of [32P]-labeled template primer by TRAP assay; assay type: subcellular
Quadruplex DNA [4] = assay: Binding affinity to G-quadruplex G2 DNA (unknown origin) assessed as increase in deltaTm at compound to DNA ratio of 10:1 by fluorescence thermal denaturation analysis; assay type: nucleic-acid assay
Quadruplex DNA [5] = assay: Binding affinity to G-quadruplex G1 DNA (unknown origin) assessed as melting temperature at compound to DNA ratio of 4:1 in presence of 150 mM Na+ by circular dichroism thermal denaturation analysis (reference value: 57.4 degC); assay type: nucleic-acid assay
dsDNA = assay: Binding affinity to 17 mer duplex D1 DNA (unknown origin) assessed as equilibrium dissociation constant at 0.5 uM incubated for 30 mins under dark condition by fluorometric titration analysis; assay type: nucleic-acid assay
Quadruplex DNA [6] = assay: Binding affinity to human G-quadruplex G1 DNA assessed as equilibrium dissociation constant at 0.5 uM incubated for 30 mins under dark condition by fluorometric titration analysis; assay type: nucleic-acid assay
Quadruplex DNA [7] = assay: Binding affinity to human G-quadruplex G1 DNA assessed as increase in fluorescence at 0.5 uM incubated for 30 mins in dark by fluorescence titration analysis relative to control; assay type: nucleic-acid assay
[8] = Ratio of Kd for human G-quadruplex G1 DNA to Kd for 17 mer duplex D1 DNA (unknown origin) by flourimetric titration analysis
[9] = biological target: Telomerase reverse transcriptase (Homo sapiens) (UniProt O14746); assay: Inhibition of telomerase activity in human HeLa cell lysate in presence of [32P]-labeled template primer by TRAP assay; assay type: subcellular
HeLa [10] = assay: Inhibition of DNA polymerase activity in human HeLa cell lysate at 0.625 to 10 uM in presence of [32P]-labeled template primer by TRAP assay; assay type: subcellular
Quadruplex DNA [11] = assay: Binding affinity to G-quadruplex G2 DNA (unknown origin) assessed as change in melting temperature at compound to DNA ratio of 7:1 by fluorescence thermal denaturation analysis; assay type: nucleic-acid assay
[12] = biological target: Telomerase reverse transcriptase (Homo sapiens) (UniProt O14746); assay: Inhibition of telomerase activity in human HeLa cell lysate at <10 uM in presence of [32P]-labeled template primer by TRAP assay; assay type: subcellular
[13] = biological target: Telomerase reverse transcriptase (Homo sapiens) (UniProt O14746); assay: Inhibition of telomerase activity in human HeLa cell lysate at 10 uM in presence of [32P]-labeled template primer by TRAP assay; assay type: subcellular
[14] = biological target: Telomerase reverse transcriptase (Homo sapiens) (UniProt O14746); assay: Inhibition of telomerase activity in human HeLa cell lysate at 0.625 uM in presence of [32P]-labeled template primer by TRAP assay; assay type: subcellular
HeLa [15] = assay: Inhibition of DNA polymerase activity in human HeLa cell lysate at <10 uM in presence of [32P]-labeled template primer by TRAP assay; assay type: subcellular
HeLa [16] = assay: Inhibition of DNA polymerase activity in human HeLa cell lysate at 5 uM in presence of [32P]-labeled template primer by TRAP assay; assay type: subcellular
HeLa [17] = assay: Inhibition of DNA polymerase activity in human HeLa cell lysate at 10 uM in presence of [32P]-labeled template primer by TRAP assay; assay type: subcellular
Quadruplex DNA [18] = assay: Ratio of thiazole orange Kd to compound Kd for human G-quadruplex G1 DNA at 0.5 uM incubated for 30 mins in dark by fluorimetric titration analysis; assay type: nucleic-acid assay
HeLa [19] = assay: Inhibition of DNA polymerase activity in human HeLa cell lysate at 0.156 to 2.5 uM in presence of [32P]-labeled template primer by TRAP assay; assay type: subcellular
[20] = biological target: Telomerase reverse transcriptase (Homo sapiens) (UniProt O14746); assay: Inhibition of telomerase activity in human HeLa cell lysate at 0.156 to 2.5 uM in presence of [32P]-labeled template primer by TRAP assay; assay type: subcellular
[21] = biological target: Telomerase reverse transcriptase (Homo sapiens) (UniProt O14746); assay: Inhibition of telomerase activity in human HeLa cell lysate at 0.078 uM in presence of [32P]-labeled template primer by TRAP assay; assay type: subcellular
[22] = biological target: Telomerase reverse transcriptase (Homo sapiens) (UniProt O14746); assay: Inhibition of telomerase activity in human HeLa cell lysate at 5 uM in presence of [32P]-labeled template primer by TRAP assay; assay type: subcellular
[23] = biological target: Telomerase reverse transcriptase (Homo sapiens) (UniProt O14746); assay: Inhibition of telomerase activity in human HeLa cell lysate at 6.25 uM in presence of [32P]-labeled template primer by TRAP assay relative to control; assay type: subcellular
HeLa [24] = assay: Inhibition of DNA polymerase activity in human HeLa cell lysate at 6.25 uM in presence of [32P]-labeled template primer by TRAP assay relative to control; assay type: subcellular
HeLa [25] = assay: Inhibition of DNA polymerase activity in human HeLa cell lysate at 50 uM in presence of [32P]-labeled template primer by TRAP assay; assay type: subcellular
[26] = biological target: Telomerase reverse transcriptase (Homo sapiens) (UniProt O14746); conditions: HeLa, Lysate, 50 uM
Description: Inhibition of telomerase activity in human HeLa cell lysate at 50 uM in presence of [32P]-labeled template primer by TRAP assay

HeLa [27] = conditions: Homo sapiens, Lysate, 10 to 100 uM
Description: Inhibition of DNA polymerase activity in human HeLa cell lysate at 10 to 100 uM in presence of [32P]-labeled template primer by TRAP assay

[28] = biological target: Telomerase reverse transcriptase (Homo sapiens) (UniProt O14746); conditions: HeLa, Lysate, 10 to 100 uM
Description: Inhibition of telomerase activity in human HeLa cell lysate at 10 to 100 uM in presence of [32P]-labeled template primer by TRAP assay

Chain of Telomerase reverse transcriptase (Homo sapiens) (O14746 whole entry): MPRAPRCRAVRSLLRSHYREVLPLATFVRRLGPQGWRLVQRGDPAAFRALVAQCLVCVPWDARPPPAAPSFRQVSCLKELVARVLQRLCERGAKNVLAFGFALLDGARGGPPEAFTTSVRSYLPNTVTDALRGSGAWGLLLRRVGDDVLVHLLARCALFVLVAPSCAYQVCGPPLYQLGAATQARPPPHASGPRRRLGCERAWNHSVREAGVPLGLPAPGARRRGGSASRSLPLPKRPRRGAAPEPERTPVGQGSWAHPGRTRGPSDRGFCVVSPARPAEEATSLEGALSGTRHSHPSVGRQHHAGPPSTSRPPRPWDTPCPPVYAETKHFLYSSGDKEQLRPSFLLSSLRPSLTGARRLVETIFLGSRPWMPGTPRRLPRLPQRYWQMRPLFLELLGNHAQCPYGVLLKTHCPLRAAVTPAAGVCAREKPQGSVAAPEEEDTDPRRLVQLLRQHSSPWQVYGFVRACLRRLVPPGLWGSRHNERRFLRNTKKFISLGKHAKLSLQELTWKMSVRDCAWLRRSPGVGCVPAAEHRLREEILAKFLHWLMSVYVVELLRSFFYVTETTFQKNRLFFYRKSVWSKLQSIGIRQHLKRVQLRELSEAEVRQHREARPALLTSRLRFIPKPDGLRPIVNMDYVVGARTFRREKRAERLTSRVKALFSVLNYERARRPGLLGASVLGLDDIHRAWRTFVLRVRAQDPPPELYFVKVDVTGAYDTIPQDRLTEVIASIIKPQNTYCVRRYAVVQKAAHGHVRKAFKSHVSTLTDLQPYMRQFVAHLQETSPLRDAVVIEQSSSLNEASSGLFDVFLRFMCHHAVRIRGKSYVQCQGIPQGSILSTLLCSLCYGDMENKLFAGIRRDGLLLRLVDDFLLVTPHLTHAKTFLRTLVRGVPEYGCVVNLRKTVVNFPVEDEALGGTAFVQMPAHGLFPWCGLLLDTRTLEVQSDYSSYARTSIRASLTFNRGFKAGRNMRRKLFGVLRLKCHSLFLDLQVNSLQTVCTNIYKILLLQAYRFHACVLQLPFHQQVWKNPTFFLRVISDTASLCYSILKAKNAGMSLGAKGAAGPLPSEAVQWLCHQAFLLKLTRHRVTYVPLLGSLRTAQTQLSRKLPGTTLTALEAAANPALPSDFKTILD

| Structure (SMILES) | Tm (Quadruplex DNA [1]) [°C] | inhibition (HeLa [2]) | inhibition [3] | Activity (Quadruplex DNA [4]) | Tm (Quadruplex DNA [5]) [°C] | fold change (FC) (Quadruplex DNA [7]) | Ratio [8] | other results |
| --- | --- | --- | --- | --- | --- | --- | --- | --- |
| C[n+]1c(/C=C2\C=CN(CC(=O)NCCN)c3ccccc32)sc2ccccc21 | 59.2 | inactive | inactive | Active | 57.5 |  |  |  |
| CN1C=C/C(=C\c2sc3ccccc3[n+]2C)c2ccccc21 |  |  |  |  |  |  |  | Kd (dsDNA): 400 nM; Kd (Quadruplex DNA [6]): 870 nM |
| C[n+]1c(/C=C2\C=CN(CC(=O)NCCOCCN3CCCC3)c3ccccc32)sc2ccccc21 | 59.7 | inactive | Active | Active | 60.5 | 200 | 2.7 | Kd (dsDNA): 610 nM; Kd (Quadruplex DNA [6]): 1650 nM |
| C[n+]1c(/C=C2\C=CN(CC(=O)NCCN3CCCC3)c3ccccc32)sc2ccccc21 | 69.4 | inactive | Active |  | 62.5 | 200 | 0.79 | EC [9]: 2.5 µM; inhibition (HeLa [10]): inactive; Kd (dsDNA): 380 nM; KdH (Quadruplex DNA [6]): 0.3 µM; KdL (Quadruplex DNA [6]): 1.77 µM; ΔTm (Quadruplex DNA [11]): 7.1 °C |
| CN1/C(=C/c2cc[n+](C)c3ccccc23)Sc2ccccc21 | 63.4 |  | Active |  | 60 | 340 | 2.18 |  |
| C[n+]1c(/C=C2\C=CN(CC(=O)NCCOCCN)c3ccccc32)sc2ccccc21 | 58.7 | inactive | inactive | Active | 56 |  |  |  |
| C[n+]1c(/C=C2\C=CN(CC(=O)NCCNCCNCCN)c3ccccc32)sc2ccccc21 | 62.4 | inactive | Active | Active | 58.5 |  |  | inhibition [12]: Active; inhibition [13]: Active; inhibition [14]: inactive; inhibition (HeLa [15]): inactive |
| C[n+]1c(/C=C2\C=CN(CC(=O)NCCCNCCCCNCCCN)c3ccccc32)sc2ccccc21 | 71 |  |  |  | 65 | 200 | 2.33 | inhibition (HeLa [16]): Active; inhibition [13]: 100%; inhibition (HeLa [17]): 100%; Ratio (Quadruplex DNA [18]): 12.4; inhibition (HeLa [19]): inactive; inhibition [20]: Active; inhibition [21]: inactive; KdH (dsDNA): 0.03 µM; KdL (dsDNA): 0.65 µM; KdH (Quadruplex DNA [6]): 0.07 µM; KdL (Quadruplex DNA [6]): 1.73 µM; inhibition [22]: 100%; inhibition [23]: 100%; ΔTm (Quadruplex DNA [11]): 6.9 °C; inhibition (HeLa [24]): 100% |
| C[n+]1ccc(-c2c3nc(c(-c4cc[n+](C)cc4)c4ccc([nH]4)c(-c4cc[n+](C)cc4)c4ccc([nH]4)c(-c4cc[n+](C)cc4)c4nc2C=C4)C=C3)cc1 |  |  |  |  |  |  |  | inhibition (HeLa [25]): Active; inhibition [26]: Active |
| C[n+]1c(/C=C2\C=CN(CC(=O)NCCCNCCCN)c3ccccc32)sc2ccccc21 | 60.5 | inactive | Active | Active | 61.5 | 200 | 2.8 | inhibition [12]: Active; inhibition [13]: Active; inhibition [14]: Active; inhibition (HeLa [17]): Active; KdH (dsDNA): 0.05 µM; KdL (dsDNA): 0.92 µM; KdH (Quadruplex DNA [6]): 0.14 µM; KdL (Quadruplex DNA [6]): 0.95 µM; inhibition (HeLa [15]): inactive |
| C[n+]1c(/C=C2\C=CN(CC(=O)NCCN3CCCCC3)c3ccccc32)sc2ccccc21 | 64 | inactive | Active | Active | 56 | 200 | 4.18 | EC [9]: 5 µM; inhibition (HeLa [10]): inactive; Kd (dsDNA): 270 nM; Kd (Quadruplex DNA [6]): 1130 nM |
| C[n+]1c(/C=C2\C=CN(CC(=O)NCCCN)c3ccccc32)sc2ccccc21 | 60.2 | inactive | inactive | Active | 56.5 |  |  |  |
| C[n+]1c(/C=C2\C=CN(CC(=O)O)c3ccccc32)sc2ccccc21 | 54 | inactive | inactive |  | 57.1 |  |  |  |
| C[n+]1c(/C=C2\C=CN(CC(=O)NCCOCCN3CCCCC3)c3ccccc32)sc2ccccc21 | 64.9 | inactive | Active | Active | 60.5 | 200 | 3.57 | Kd (dsDNA): 710 nM; Kd (Quadruplex DNA [6]): 2180 nM |
| O=C1c2ccc3c4ccc5c6c(ccc(c7ccc(c2c37)C(=O)N1CCN1CCCCC1)c64)C(=O)N(CCN1CCCCC1)C5=O |  |  |  |  |  |  |  | inhibition [13]: inactive |
| C/C(=C\C(=O)Nc1ccccc1C(=O)O)c1ccc2ccccc2c1 |  |  |  |  |  |  |  | inhibition [26]: Active |
| C[n+]1c(/C=C2\C=CN(CC(=O)NCCCCCCN)c3ccccc32)sc2ccccc21 | 62.3 | inactive | Active | Active | 60 |  |  |  |
| NCCCNCCCCNCCCN |  |  |  |  |  |  |  | inhibition (HeLa [27]): inactive; inhibition [28]: inactive |
| C[n+]1c(/C=C2\C=CN(CC(=O)NCCOCCOCCOCCN)c3ccccc32)sc2ccccc21 | 59.4 | inactive | inactive | Active | 57 |  |  |  |
